Where a name gives a salt, the structure may show the parent alone. Read-outs that look alike come from different tables or passages of the source.
Key:
[1] = tested on: formalin-induced flinching; experiment: animal or person; format: in vivo, male Sprague-Dawley rats; conditions: for inhibition in vivo at 0.3 µM: Rattus norvegicus, read-out: Formalin (% A @ 300 nM) i. paw
[2] = target: cloned human kappa receptor (Homo sapiens, UniProt P41145); experiment: biochemical; format: binding
[3] = Table IA, read-out: Ki(nM) (3H)-Diprenorphin
[4] = read-out: Ki(nM) [3H]-Diprenorphin κ

cloned human kappa receptor, sequence (P41145 whole entry): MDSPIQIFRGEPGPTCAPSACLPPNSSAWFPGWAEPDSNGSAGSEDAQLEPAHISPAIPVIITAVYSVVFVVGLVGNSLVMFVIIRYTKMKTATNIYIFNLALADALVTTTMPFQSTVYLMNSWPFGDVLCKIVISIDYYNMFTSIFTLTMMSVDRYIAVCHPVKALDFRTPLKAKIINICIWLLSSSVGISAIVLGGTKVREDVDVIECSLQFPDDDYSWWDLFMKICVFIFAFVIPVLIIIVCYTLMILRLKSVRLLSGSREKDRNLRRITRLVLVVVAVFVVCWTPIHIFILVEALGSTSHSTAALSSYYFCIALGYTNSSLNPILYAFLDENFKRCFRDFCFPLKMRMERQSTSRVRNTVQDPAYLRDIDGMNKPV

CN(C(=O)Cc1ccc(O)c(NS(C)(=O)=O)c1)[C@H](CN1CCCC1)c1ccccc1 [Example 124, 2-(3-N-Methylsulfonamido-3-amino-4-hydroxyphenyl)-N-methyl-N-[(1S)-1-phenyl-2-(1-pyrrolidinyl)ethyl]acetamide]
Late Phase Formalin (i. paw), % @ 300 ([1]; rat, in vivo): 77% @ 300 | Ki ([2]; Ki (nM) [3H]-Diprenorphin κ): 5.6 nM

CN(C(=O)Cc1ccc(Cl)c(Cl)c1)[C@H](CN1CCCC1)c1cccc(NC(=O)CCC(=O)NCC(=O)O)c1 [Example 3j, 2-(3,4-Dichlorophenyl)-N-methyl-N-{(1R,S)-1-[3-(3-(((hydroxycarbonyl)-methyl)aminocarbonyl)propionamido)phenyl]-2-(1-pyrrolidinyl)ethyl}acetamide hydrochloride]
Late Phase Formalin, % @ 300 ([1]; rat, in vivo): 38% @ 300 | Ki ([2]; Ki (nM) [3H]-Diprenorphin κ): 2.3 nM

CCOP(=O)(Nc1cccc([C@@H](CN2CCCC2)N(C)C(=O)Cc2ccc(Cl)c(Cl)c2)c1)OCC [Example 3g, 2-(3,4-Dichlorophenyl)-N-methyl-N-[(1S)-1-[3-(diethyl Phosphoryl)amino]phenyl)-2-(1-pyrrolidinyl)ethyl]acetamide hydrochloride]
Late Phase Formalin A50 ([1]; rat, in vivo): 4.4 mg/kg | Ki ([2]; Ki (nM) [3H]-Diprenorphin κ): 0.12 nM

CNS(=O)(=O)c1ccccc1CC(=O)N(C)C(CN1CCCC1)c1ccccc1F (racemic) [Example 147]
Late Phase Formalin (i. paw), % @ 300 ([1]; rat, in vivo): 56% @ 300 | Ki ([2]; Ki (nM) [3H]-Diprenorphin κ): 10 nM

COC(=O)N1CCN(C(=O)Cc2ccccc2N(S(C)(=O)=O)S(C)(=O)=O)C(CN2CCCC2)C1 (racemic) [Example 1d, Methyl-4-[(2-[N,N-bis-methylsulfonamido]phenyl)acetyl]-3-(R,S)-[(1-pyrrolidinyl)methyl]-1-piperazinecarboxylate hydrochloride]
inhibition in vivo at 0.3 µM [1]: 77% | Ki ([2]; Ki, nM 3H-Diprenorphin): 7.6 nM

COc1cc(CC(=O)N(C)[C@H](CN2CC[C@H](O)C2)c2ccccc2)c(S(=O)(=O)N2CCOCC2)cc1OC [Example 141, 2-[2-N-(Morpholinesulfamoyl)-4,5-dimethoxyphenyl]-N-methyl-N-[(1S)-1-phenyl-2-[1-(3S)-(3-hydroxypyrrolidinyl)ethyl]]acetamide]
Late Phase Formalin (i. paw), % @ 300 ([1]; rat, in vivo): 98% @ 300 | Ki ([2]; Ki (nM) [3H]-Diprenorphin κ): 1.3 nM

N-[1S. 2S-trans-4-Trifluoromethyl-N-methyl-N-[2-(1-pyrrolidinyl)cyclohexyl]-phenylacetamido]glycine Hydrochloride [Example 4j]
Formalin (% A @ 300 μg i-paw) ([1]; rat, in vivo): 91% @ 300 | Ki ([2]; read-out: Ki(nM) [3H]-Diprenorphin): 10.3 nM

CNS(=O)(=O)c1cccc(CC(=O)N(C)[C@H](CN2CCCC2)c2ccccc2)c1OC [Example 3u]
Late Phase Formalin, % @ 300 ([1]; rat, in vivo): 48% @ 300 | Ki ([2]; Ki (nM) [3H]-Diprenorphin κ): 1 nM

CC(=O)N1CCN(C(=O)Cc2ccc(Cl)c(Cl)c2)C(CN2CC[C@H](OC(=O)Cc3ccc(Cl)c(Cl)c3)C2)C1 (mixture of isomers) [Example 1w, 4-Acetyl-1-[(3,4-dichlorophenyl)acetyl]-2-(R,S)-[3-(S)-(3′,4′-dichlorophenyl acetate)-1-(pyrrolidinyl)methyl]piperazine hydrochloride]
inhibition in vivo at 0.3 µM [1]: 60% | Ki [2, 3]: 1160 nM

COC(=O)N1CCN(C(=O)Cc2ccc(C(F)(F)F)cc2[N+](=O)[O-])C(CN2CCC[C@H]2CO)C1 (mixture of isomers) [Example 1m, Methyl-4-[(2-nitro-4-α,α,α-trifluoromethylphenyl)acetyl]-3-(R,S)-[(2-(S)-pyrrolidinemethanol)methyl]-1-piperazinecarboxylate hydrochloride]
Formalin A50 mg/kg s.c. ([1]; rat, in vivo, sc): 1.7 mg/kg | Ki ([2]; Ki, nM 3H-Diprenorphin): 49.5 nM

CN(C(=O)Cc1ccc(Cl)c(Cl)c1)[C@H](CN1CCCC1)c1cccc(NS(N)(=O)=O)c1 (racemic) [Example 3c, 2-(3,4-Dichlorophenyl)-N-methyl-N-[(1R,S)-1-(3-sulfamidophenyl)-2-(1-pyrrolidinyl)ethyl]acetamide hydrochloride]
Late Phase Formalin A50 ([1]; rat, in vivo): 0.27 mg/kg | Ki ([2]; Ki (nM) [3H]-Diprenorphin κ): 0.12 nM

CNS(=O)(=O)c1cc(OC)ccc1CC(=O)N(C)[C@H](CN1CCCC1)c1ccccc1 [Example 145, 2-[2-(N-Methylsulfamoyl)-4-methoxyphenyl]-N-methyl-N-[(1S)-1-phenyl-2-[(1-pyrrolidinyl)ethyl]]acetamide]
Late Phase Formalin (i. paw), % @ 300 ([1]; rat, in vivo): 83% @ 300 | Ki [2, 4]: 20.5 nM

COC(=O)N1CCN(C(=O)Cc2ccc(S(C)(=O)=O)cc2)C(CN2CCC[C@H]2CO)C1 (mixture of isomers) [Example 1o, Methyl-4-[(4-methylsulphonylphenyl)acetyl]-3-(R,S)-[(2-(S)-pyrrolidinemethanol)methyl]-1-piperazinecarboxylate hydrochloride]
inhibition in vivo at 0.3 µM [1]: 41% | Ki [2, 3]: 133 nM

CNS(=O)(=O)c1ccc(CC(=O)N(C)[C@H](CN2CC[C@H](O)C2)c2ccccc2)cc1 [Example 146, 2-[4-N-(Methylsulfamoyl)-phenyl]-N-methyl-N-[(1S)-1-phenyl-2-[1-(3S)-(3-hydroxypyrrolidinyl)ethyl]]acetamide]
Late Phase Formalin (i. paw), % @ 300 ([1]; rat, in vivo): 52% @ 300 | Ki ([2]; Ki (nM) [3H]-Diprenorphin κ): 1 nM

COc1cc(CC(=O)N(C)[C@H](CN2CCCC2)c2ccccc2)c(S(=O)(=O)N2CCCC2)cc1OC [Example 134, 2-[2-(N-Pyrrolidinesulfamoyl)-4,5-dimethoxyphenyl]-N-methyl-N-[(1S)-1-phenyl-2-[(1-pyrrolidinyl)ethyl]]acetamide]
Late Phase Formalin (i. paw), % @ 300 ([1]; rat, in vivo): 99% @ 300 | Ki ([2]; Ki (nM) [3H]-Diprenorphin κ): 0.26 nM

C=CCN1CCN(C(=O)Cc2ccc(Cl)c(Cl)c2)[C@H](CN2CCCC2)C1 [Example 1ff, 4-Allyl-1-[(3,4-dichlorophenyl)acetyl]-2-(R)-[(1-pyrrolidinyl)methyl]piperazine hydrochloride]
inhibition in vivo at 0.3 µM [1]: 98% | Ki ([2]; Ki, nM 3H-Diprenorphin): 0.58 nM

CN(C(=O)Cc1ccc(C(F)(F)F)cc1NS(C)(=O)=O)[C@H](CN1CC[C@H](O)C1)c1ccccc1 [Example 126, 2-(2-N-Methylsulfonamido-2-amino-4-trifluoromethylphenyl)-N-methyl-N-[(1S)-1-phenyl-2-[1-(3S)-(3-hydroxypyrrolidinyl)ethyl]]acetamide]
Late Phase Formalin (i. paw), % @ 300 ([1]; rat, in vivo): 93% @ 300 | Ki ([2]; Ki (nM) [3H]-Diprenorphin κ): 0.61 nM

COc1ccc(C(CN2CCCC2)N(C)C(=O)Cc2ccccc2NS(C)(=O)=O)cc1 (racemic) [Example 128]
Late Phase Formalin (i. paw), % @ 300 ([1]; rat, in vivo): 56% @ 300 | Ki ([2]; Table IIIB, read-out: Ki(nM) [3H]-Diprenorphin κ): 110 nM

CNS(=O)(=O)c1cc(CC(=O)N(C)[C@H](CN2CCCC2)c2ccccc2)ccc1Cl.Cl [Example 3l, 2-[3-(N-Methylsulfamoyl)-4-chlorophenyl]-N-methyl-N-{[1S]-1-phenyl-2-[1-pyrrolidinyl]ethyl}acetamide hydrochloride]
Late Phase Formalin, % @ 300 ([1]; rat, in vivo): 73% @ 300 | Ki ([2]; Ki (nM) [3H]-Diprenorphin κ): 3.8 nM

COC(=O)CNC(=O)c1ccccc1CC(=O)N(C)[C@H](CN1CCCC1)c1ccccc1 [Example 3mm, Methyl N-[2-(2-pheny)-N-methyl-N-{[1S]-1-phenyl-2-(1-pyrrolidinyl)ethyl}acetamido]2-oxo-glycinate hydrochloride]
Late Phase Formalin, % @ 300 ([1]; rat, in vivo): 53% @ 300 | Ki ([2]; Ki (nM) [3H]-Diprenorphin κ): 16.4 nM

CNS(=O)(=O)c1ccccc1CC(=O)N1CCN(C(=O)OC)CC1CN1CCCC1 (racemic) [Example 1e, Methyl-4-[(2-[N-methylamino)sulfamyl]phenyl)acetyl]-3-(R,S)-[(1-pyrrolidinyl)methyl]-1-piperazinecarboxylate hydrochloride]
inhibition in vivo at 0.3 µM [1]: 55% | Ki ([2]; Ki, nM 3H-Diprenorphin): 14 nM

COC(=O)N1CCN(C(=O)Cc2ccc(Cl)c(Cl)c2)[C@@H](CN2CCC[C@H]2CO)C1 [Example 1ii, Methyl-4-[(3,4-dichlorophenyl)acetyl]-3-(S)-[(2-(S)-pyrrolidinemethanol)methyl]-1-piperazinecarboxlate hydrochloride]
inhibition in vivo at 0.3 µM [1]: 60% | Ki ([2]; Ki, nM 3H-Diprenorphin): 21.5 nM

COc1cc(CC(=O)N(C)[C@H](CN2CCCC2)c2ccccc2)c(S(=O)(=O)N(C)C)cc1OC [Example 136, 2-[2-(N-Dimethylsulfamoyl)-4,5-dimethoxyphenyl]-N-methyl-N-[(1S)-1-phenyl-2-[(1-pyrrolidinyl)ethyl]]acetamide]
Late Phase Formalin (i. paw), % @ 300 ([1]; rat, in vivo): 97% @ 300 | Ki ([2]; Ki (nM) [3H]-Diprenorphin κ): 0.44 nM

CS(=O)(=O)O[C@H]1CCN(CC2CN(S(C)(=O)=O)CCN2C(=O)Cc2ccc(Cl)c(Cl)c2)C1 (stereo partly drawn) [Example 1jj, 4-Methanesulfonyl-1-[(3,4-dichlorophenyl)acetyl]-2-(R,S)-[3-(S)-methanesulfonate-1-(pyrrolidinyl)methyl]piperazine hydrochloride]
inhibition in vivo at 0.3 µM [1]: 49% | Ki ([2]; Ki, nM 3H-Diprenorphin): 11.5 nM

O=C(Cc1ccc(C(F)(F)F)cc1)N1CCN(C(=O)C(F)(F)F)CC1CN1CCCC1 (racemic) [Example 1h, 4-Trifluoroacetyl-1-[(-4-trifluoromethylphenyl)acetyl]-2-(R,S)-(1-pyrrolidinyl)methyl]piperazine hydrochloride]
inhibition in vivo at 0.3 µM [1]: 100% | Ki ([2]; Ki, nM 3H-Diprenorphin): 50 nM

COc1cc(CC(=O)N(C)[C@H](CN2CCCC2)c2ccccc2)c(S(=O)(=O)N2CCN(C)CC2)cc1OC [Example 138]
Late Phase Formalin (i. paw), % @ 300 ([1]; rat, in vivo): 80% @ 300 | Ki [2, 4]: 1.3 nM

COc1ccc(CC(=O)N(C)[C@H](CN2CCCC2)c2ccccc2)cc1NS(C)(=O)=O [Example 122, 2-(3-N-Methylsulfonamido-3-amino-4-methoxyphenyl)-N-methyl-N-[(1S)-1-phenyl-2-(1-pyrrolidinyl)ethyl]acetamide methane sulfonate]
Late Phase Formalin (i. paw), % @ 300 ([1]; rat, in vivo): 85% @ 300 | Ki ([2]; Ki (nM) [3H]-Diprenorphin κ): 0.8 nM

CN(C(=O)Cc1ccc(O)c(N(S(C)(=O)=O)S(C)(=O)=O)c1)[C@H](CN1CCCC1)c1ccccc1 [Example 130, 2-(3-N-Bis-methylsulfonamido-3-amino-4-hydroxyphenyl)-N-methyl-N-[(1S)-1-phenyl-2-(1-pyrrolidinyl)ethyl]acetamide]
Late Phase Formalin (i. paw), % @ 300 ([1]; rat, in vivo): 46% @ 300 | Ki ([2]; Ki (nM) [3H]-Diprenorphin κ): 1.3 nM

CC(C)COC(=O)CNC(=O)CCC(=O)Nc1cccc([C@@H](CN2CCCC2)N(C)C(=O)Cc2ccc(Cl)c(Cl)c2)c1 [Example 3i, 2-(3,4-Dichlorophenyl)-N-methyl-N-{(1S)-1-[3-(3-(((iso-butoxycarbonyl)-methyl)aminocarbonyl)propionamido)phenyl]-2-(1-pyrrolidinyl)ethyl}acetamide hydrochloride]
Late Phase Formalin, % @ 300 ([1]; rat, in vivo): 23% @ 300 | Ki ([2]; Ki (nM) [3H]-Diprenorphin κ): 0.14 nM

From US20050020576A1, “Kappa agonist compounds and pharmaceutical formulations thereof” (priority 1996, published 2005)
